Patent US20250041380A1, “R[…] FOR SARS-COV2 DISEASE” (priority 2021, published 2025)
Like-named read-outs stand apart in the source and are kept apart here.

Assays:
[1] = system: Colon cells (HT-29); assay: cells; assay type: cell-based; details: Spike S1 Protein (1 μg/ml); for inhibition at 0.1 µM / inhibition at 1 µM / inhibition at 10 µM / inhibition at 20 µM: Homo sapiens, HT-29
[2] = system: pancreatic cells (PANC-1); assay: cells; assay type: cell-based; details: Spike S1 Protein (20 μg/ml)+
[3] = system: liver cells (HepG2); assay: cells; assay type: cell-based; details: Spike S1 Protein (20 μg/ml)
[4] = system: Immune (THP-1) cells; assay: in vitro; assay type: cell-based, Human; details: 48 h
Protocol: (§1) A549 cells were plated in DMEM+10% FBS at a density of 10,000 cells/well in 96-well culture plates and incubated at 37° C. for 24 h. THP-1 cells were plated in RPMI+10% FBS at a density of 10,000 cells/well in 96-well culture plates and incubated at 37° C. for 24 h. Cells were sera-starved for 24 h. […] Untreated cells were used as control. Cells treated with dexamethasone and hydroxychloroquine were included as positive control. After treatment, cells were incubated in a 5% CO2 incubator for 48 h.

[5] = in vitro; assay type: cell-based, Human; details: human, 1 μM
Protocol: as §1

[6] = system: Bladder cells (T24); assay: tissue or blood; assay type: cell-based; details: Spike S1 Protein (5 μg/ml)
[7] = system: Cardiac cells (H9C2); assay: cells; assay type: cell-based; details: Spike S1 Protein (5 μg/ml); for inhibition at 0.1 µM / inhibition at 1 µM / inhibition at 10 µM / inhibition at 20 µM: Rattus norvegicus, H9c2
[8] = in vitro; assay type: cell-based, Human; details: human, 1 μM; remark: listed apart in the source
Protocol: as §1

[9] = system: Lung (A549) cells; assay: in vitro; assay type: cell-based, Human; details: 48 h
Protocol: as §1

[10] = system: Kidney cells (HEK-293); assay: cells; assay type: cell-based; details: Spike S1 Protein (100 ng/ml); for inhibition at 0.1 µM / inhibition at 1 µM / inhibition at 10 µM / inhibition at 20 µM: Homo sapiens, HEK293
[11] = system: Endothelial cells (EA.hy926); assay: cells; assay type: cell-based; details: Spike S1 Protein (1 μg/ml); for inhibition at 0.1 µM / inhibition at 1 µM / inhibition at 10 µM / inhibition at 20 µM: Homo sapiens, EA.hy 926
[12] = system: Bone cells (MG-63); assay: cells; assay type: cell-based; details: Spike S1 Protein (10 μg/ml); for inhibition at 0.1 µM / inhibition at 1 µM / inhibition at 10 µM / inhibition at 20 µM: Homo sapiens, MG-63
[13] = 0.1 μM, read-out: % Inhibition (wrt Control), IL-6
[14] = 0.1 μM, read-out: % Inhibition (wrt Control), IL-8
[15] = 1 μM, read-out: % Inhibition (wrt Control), IL-6
[16] = 1 μM, read-out: % Inhibition (wrt Control), IL-8
[17] = 10 μM, read-out: % Inhibition (wrt Control), IL-6
[18] = 10 μM, read-out: % Inhibition (wrt Control), IL-8
[19] = 20 μM, read-out: % Inhibition (wrt Control), IL-6
[20] = 20 μM, read-out: % Inhibition (wrt Control), IL-8
[21] = 0.1 μM, read-out: % Inhibition (IL-6)
[22] = 0.1 μM, read-out: % Inhibition (IL-8)
[23] = 1 μM, read-out: % Inhibition (IL-6)
[24] = 1 μM, read-out: % Inhibition (IL-8)
[25] = 10 μM, read-out: % Inhibition (IL-6)
[26] = 10 μM, read-out: % Inhibition (IL-8)
[27] = 20 μM, read-out: % Inhibition (IL-6)
[28] = 20 μM, read-out: % Inhibition (IL-8)

## CCN(CCO)CCCC(C)Nc1ccnc2cc(Cl)ccc12 (stereo not shown) [Hydroxychloroquine sulphate]
[1]; 0.1 μM
  Con. of IL-8: 49.1 pg/mL
  Conc. of IL-6: 114.8 pg/mL
[1]; 1 μM
  Con. of IL-8: 92.3 pg/mL
  Conc. of IL-6: 91.1 pg/mL
[1]; 10 μM
  Con. of IL-8: 99.5 pg/mL
  Conc. of IL-6: 125.2 pg/mL
[1]; 20 μM
  Con. of IL-8: 37.6 pg/mL
  Conc. of IL-6: 104.2 pg/mL
[1]; [13]
  inhibition at 0.1 µM: 51.3%
[1]; [14]
  inhibition at 0.1 µM: 92.7%
[1]; [15]
  inhibition at 1 µM: 61.4%
[1]; [16]
  inhibition at 1 µM: 86.2%
[1]; [17]
  inhibition at 10 µM: 46.9%
[1]; [18]
  inhibition at 10 µM: 85.2%
[1]; [19]
  inhibition at 20 µM: 55.8%
[1]; [20]
  inhibition at 20 µM: 94.4%
[2]; 0.1 μM
  Conc. of IL-8: 214 pg/mL
[2]; 1 μM
  Conc. of IL-8: 169.9 pg/mL
[2]; 10 μM
  Conc. of IL-8: 200.5 pg/mL
[2]; 20 μM
  Conc. of IL-8: 203 pg/mL
[2]; Homo sapiens, PANC-1, 0.1 μM, read-out: % Inhibition (wrt Control ), IL-8
  inhibition at 0.1 µM: 71.3%
[2]; Homo sapiens, PANC-1, 1 μM, read-out: % Inhibition (wrt Control ), IL-8
  inhibition at 1 µM: 77.2%
[2]; Homo sapiens, PANC-1, 10 μM, read-out: % Inhibition (wrt Control ), IL-8
  inhibition at 10 µM: 73.1%
[2]; Homo sapiens, PANC-1, 20 μM, read-out: % Inhibition (wrt Control ), IL-8
  inhibition at 20 µM: 72.8%
[3]; 0.1 μM
  Conc. of IL-8: 117.1 pg/mL
[3]; 1 μM
  Conc. of IL-8: 193.2 pg/mL
[3]; 10 μM
  Conc. of IL-8: 162.5 pg/mL
[3]; 20 μM
  Conc. of IL-8: 103.6 pg/mL
[3]; Homo sapiens, HepG2, 0.1 μM, read-out: % Inhibition (wrt Control ), IL-8
  inhibition at 0.1 µM: 76.5%
[3]; Homo sapiens, HepG2, 1 μM, read-out: % Inhibition (wrt Control ), IL-8
  inhibition at 1 µM: 61.3%
[3]; Homo sapiens, HepG2, 10 μM, read-out: % Inhibition (wrt Control ), IL-8
  inhibition at 10 µM: 67.4%
[3]; Homo sapiens, HepG2, 20 μM, read-out: % Inhibition (wrt Control ), IL-8
  inhibition at 20 µM: 79.2%
[4]; 0.1 μM
  % Viability: 113.4%
[4]; 1 μM
  % Viability: 105.2%
[4]; 5 μM
  % Viability: 95.8%
[4]; 10 μM
  % Viability: 104.8%
[4]; 20 μM
  % Viability: 89.3%
[5]
  cytotoxicity at 48 h, 1 µM: -5.2%
[6]; 0.1 μM
  Con. of IL-8: 2661.3
  Conc. of IL-6: 432.0
[6]; [21]
  inhibition at 0.1 µM: 25.2%
[6]; [22]
  inhibition at 0.1 µM: 37.7%
[6]; 1 μM
  Con. of IL-8: 2527.7
  Conc. of IL-6: 410.8
[6]; [23]
  inhibition at 1 µM: 28.9%
[6]; [24]
  inhibition at 1 µM: 40.9%
[6]; 10 μM
  Con. of IL-8: 2679.5
  Conc. of IL-6: 430.2
[6]; [25]
  inhibition at 10 µM: 25.5%
[6]; [26]
  inhibition at 10 µM: 37.3%
[6]; 20 μM
  Con. of IL-8: 2470.0
  Conc. of IL-6: 415.8
[6]; [27]
  inhibition at 20 µM: 28%
[6]; [28]
  inhibition at 20 µM: 42.2%
[7]; 0.1 μM
  Con. of IL-8: 952.1
  Conc. of IL-6: 420.1
[7]; 1 μM
  Con. of IL-8: 768.5
  Conc. of IL-6: 313.4
[7]; 10 μM
  Con. of IL-8: 231.8
  Conc. of IL-6: 125.2
[7]; 20 μM
  Con. of IL-8: 45.5
  Conc. of IL-6: 61.8
[7]; [21]
  inhibition at 0.1 µM: 16.9%
[7]; [22]
  inhibition at 0.1 µM: 33.5%
[7]; [23]
  inhibition at 1 µM: 38%
[7]; [24]
  inhibition at 1 µM: 46.3%
[7]; [25]
  inhibition at 10 µM: 75.2%
[7]; [26]
  inhibition at 10 µM: 83.8%
[7]; [27]
  inhibition at 20 µM: 87.8%
[7]; [28]
  inhibition at 20 µM: 96.8%
[8]
  cytotoxicity at 48 h, 1 µM: -5.2%
[9]; 0.1 μM
  % Viability: 79.0%
[9]; 1 μM
  % Viability: 105.2%
[9]; 5 μM
  % Viability: 101.0%
[9]; 10 μM
  % Viability: 110.9%
[9]; 20 μM
  % Viability: 72.4%
[10]; 0.1 μM
  Con. of IL-8: 651.8 pg/mL
  Conc. of IL-6: 94.2 pg/mL
[10]; 1 μM
  Con. of IL-8: 678.2 pg/mL
  Conc. of IL-6: 97.4 pg/mL
[10]; 10 μM
  Con. of IL-8: 959.1 pg/mL
  Conc. of IL-6: 137.7 pg/mL
[10]; 20 μM
  Con. of IL-8: 1809.1 pg/mL
  Conc. of IL-6: 260.0 pg/mL
[10]; [13]
  inhibition at 0.1 µM: 63.8%
[10]; [14]
  inhibition at 0.1 µM: 66%
[10]; [15]
  inhibition at 1 µM: 62.6%
[10]; [16]
  inhibition at 1 µM: 64.6%
[10]; [17]
  inhibition at 10 µM: 47.1%
[10]; [18]
  inhibition at 10 µM: 49.9%
[10]; [19]
  inhibition at 20 µM: 0%
[10]; [20]
  inhibition at 20 µM: 5.5%
[11]; 0.1 μM
  Con. of IL-8: 826.7 pg/mL
  Conc. of IL-6: 145.1 pg/mL
[11]; 1 μM
  Con. of IL-8: 1026.6 pg/mL
  Conc. of IL-6: 200.3 pg/mL
[11]; 10 μM
  Con. of IL-8: 1756.7 pg/mL
  Conc. of IL-6: 64.0 pg/mL
[11]; 20 μM
  Con. of IL-8: 1573.3 pg/mL
  Conc. of IL-6: 58.9 pg/mL
[11]; 0.1 μM, read-out: % Inhibition (wrt, IL-6)
  inhibition at 0.1 µM: 56.9%
[11]; 0.1 μM, read-out: % Inhibition (wrt, IL-8)
  inhibition at 0.1 µM: 48.8%
[11]; 1 μM, read-out: % Inhibition (wrt, IL-6)
  inhibition at 1 µM: 40.5%
[11]; 1 μM, read-out: % Inhibition (wrt, IL-8)
  inhibition at 1 µM: 36.5%
[11]; 10 μM, read-out: % Inhibition (wrt, IL-6)
  inhibition at 10 µM: 81%
[11]; 10 μM, read-out: % Inhibition (wrt, IL-8)
  inhibition at 10 µM: 0%
[11]; 20 μM, read-out: % Inhibition (wrt, IL-6)
  inhibition at 20 µM: 82.5%
[11]; 20 μM, read-out: % Inhibition (wrt, IL-8)
  inhibition at 20 µM: 2.6%
[12]; 0.1 μM
  Con. of IL-8: 703.3 pg/mL
  Conc. of IL-6: 136.5 pg/mL
[12]; 1 μM
  Con. of IL-8: 660.0 pg/mL
  Conc. of IL-6: 171.8 pg/mL
[12]; 10 μM
  Con. of IL-8: 774.4 pg/mL
  Conc. of IL-6: 233.8 pg/mL
[12]; 20 μM
  Con. of IL-8: 1388.3 pg/mL
  Conc. of IL-6: 354.0 pg/mL
[12]; [13]
  inhibition at 0.1 µM: 14.7%
[12]; [14]
  inhibition at 0.1 µM: 0.6%
[12]; [15]
  inhibition at 1 µM: -7.4%
[12]; [16]
  inhibition at 1 µM: 6.8%
[12]; [17]
  inhibition at 10 µM: -46.1%
[12]; [18]
  inhibition at 10 µM: -9.4%
[12]; [19]
  inhibition at 20 µM: -121%
[12]; [20]
  inhibition at 20 µM: -96.2%
